Laboratory results as given in PMC8968713, “Displacement of Native FXYD Protein From Na^+/K^+-ATPase With Novel FXYD Peptide Derivatives: Effects on Doxorubicin Cytotoxicity” (Frontiers in Oncology, 2022).
Read-outs that look alike come from different tables or passages of the source.

What was measured:
[1] = tested on: MCF-7 cells; assay: XTT cell viability, MCF-7 cells; format: cell-based, human; conditions: for IC50: Homo sapiens, MCF7, 48 h, 48 h, XTT, 5 experiments
Description: (§1) Human pancreatic cancer cells BxPC-3, Panc-1, non-transformed human mammary epithelial MCF-10A cells, and human breast cancer cells MCF-7 and MDA-MB-468 were obtained from the American Type Culture Collection (ATCC, Manassas, VA, USA). The cells were then cultured as previously described ([6], [9], [11]). All cells were used within 20 passages of thawing and were free of mycoplasma contamination as ascertained by mycoplasma PCR detection ([12]).
(§2) Cell metabolic activity was assayed as described ([14]) by estimating the reduction of XTT (2,3-bis(2-methoxy-4-nitro-5-sulfophenyl)-2H-tetrazolium-5-carboxyanilide), using a commercially available kit (Cell Signaling Technology, Danvers, MA, USA) according to the manufacturer’s instructions. Metabolic activity was used as a surrogate for viability. For each set of experimental groups, we performed 5 experiments with 4 replicates. Caspase-3-like activity is increased through a protease cascade during the early stage of apoptosis ([15]), and we measured activities of Caspase 3/7 (DEVDase) using the caspase fluorogenic substrate (Calbiochem, San Diego, CA, USA) as described ([9]).
(§3) Results are presented as mean ± standard deviation (SD). The IC50 values for Dox in cell viability studies were calculated by GraphPad Prism. Statistical comparisons were made with a Mann–Whitney test, ANOVA, and repeated-measure ANOVA with Geisser–Greenhouse epsilon correction. p < 0.05 was considered statistically significant.
(§4) We examined if displacement of WT FXYD3 from Na^+/K^+-ATPase is reflected in viability of cells exposed to FXYD3-pep SKSK with and without co-exposure to Dox for 48 h. The culture medium that contained FXYD3-pep SKSK and Dox was replaced with fresh medium every 24 h.

[2] = tested on: BxPC-3 cells; assay: XTT cell viability, BxPC-3 cells; format: cell-based; conditions: Homo sapiens, BXPC-3, 48 h, 5 experiments
Description: as §1, §2, §3, §4

| IC50 ([1]; Dox alone (no peptide)) [nM] | IC50 ([1]; co-exposure to 2 µM FXYD3-pep SKSK, read-out: IC50 for Dox, cell viability) [nM] | IC50 ([2]; Dox alone (no peptide)) [nM] | IC50 ([2]; co-exposure to 1 μM FXYD3-pep SKSK, read-out: IC50 for Dox, cell viability) [nM] | IC50 ([2]; co-exposure to 2 μM FXYD3-pep SKSK, read-out: IC50 for Dox, cell viability) [nM] | SMILES | Effect of ouabain on Dox-induced cytotoxicity ([1]; 48-h co-exposure with 1 μM Dox, N = 5) | Effect of ouabain alone on cell viability ([1]; 48-h exposure, ouabain 25-150 nM, N = 5) |
| --- | --- | --- | --- | --- | --- | --- | --- |
| ~4300 | ~500 | ~1740 | ~400 | ~300 | COc1cccc2c1C(=O)c1c(O)c3c(c(O)c1C2=O)C[C@@](O)(C(=O)CO)C[C@@H]3O[C@H]1C[C@H](N)[C@H](O)[C@H](C)O1 [Dox, doxorubicin] | – | – |
| – | – | – | – | – | C[C@@H]1O[C@@H](O[C@H]2C[C@@H](O)[C@]3(CO)[C@H]4[C@H](O)C[C@]5(C)[C@@H](C6=CC(=O)OC6)CC[C@]5(O)[C@@H]4CC[C@]3(O)C2)[C@H](O)[C@H](O)[C@H]1O [ouabain] | modest augmentation of Dox-induced cytotoxicity decreased with an increase in ouabain concentration | reduced cell viability in a concentration-dependent manner |
